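Cells were grown in 96-well plates and exposed to each compound for 48 hours at five concentrations; endpoints were interpolated linearly between bracketing concentrations, or set to the highest concentration if not reached. Abbreviation: GI50, concentration required for 50% inhibition of growth.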 Calls of active or inactive are those of the source. No stated cut-off is given here; in the data, active = GI50 up to about 1.1 µM and inactive = higher.
Columns and labels:
Assay in all cases: growth of human tumour cells (NCI), 48 h
M14 = system: M14
HOP-18 = system: HOP-18
SNB-75 = system: SNB-75
COLO 205 = system: COLO 205
XF498 = system: XF498
KM12 = system: KM12
BT-549 = system: BT-549
SF-295 = system: SF-295
ACHN = system: ACHN
K562 = system: K562
SK-OV-3 = system: SK-OV-3
Malme-3M = system: Malme-3M
HCT-15 = system: HCT-15
TK-10 = system: TK-10
SK-MEL-28 = system: SK-MEL-28
OVCAR-8 = system: OVCAR-8
CAKI-1 = system: CAKI-1
HCC 2998 = system: HCC 2998
HT-29 = system: HT-29
CCRF-CEM = system: CCRF-CEM
NCI-H460 = system: NCI-H460
EKVX = system: EKVX
SNB-78 = system: SNB-78
KM-20L2 = system: KM-20L2
HL-60 = system: HL-60
MDA-MB-435 = system: MDA-MB-435
UACC-62 = system: UACC-62
LOX IMVI = system: LOX IMVI
IGROV-1 = system: IGROV-1
NCI-H522 = system: NCI-H522
Hs-578T = system: Hs-578T
SF-539 = system: SF-539
SN12C = system: SN12C
T47D = system: T47D
SK-MEL-5 = system: SK-MEL-5
UO-31 = system: UO-31
MCF7 = system: MCF7
PC-3 = system: PC-3
786-0 = system: 786-0
OVCAR-3 = system: OVCAR-3
UACC-257 = system: UACC-257
MDA-N = system: MDA-N
NCI-H23 = system: NCI-H23
RXF 631 = system: RXF 631
NCI/ADR-RES = system: NCI/ADR-RES
DLD-1 = system: DLD-1
SW-620 = system: SW-620
MOLT-4 = system: MOLT-4
SK-MEL-2 = system: SK-MEL-2
DMS-273 = system: DMS-273
RPMI-8226 = system: RPMI-8226
A498 = system: A498
HOP-62 = system: HOP-62
OVCAR-4 = system: OVCAR-4
HOP-92 = system: HOP-92
LXFL 529 = system: LXFL 529
DMS-114 = system: DMS-114
RXF 393 = system: RXF 393
M19-MEL = system: M19-MEL
SF-268 = system: SF-268
U-251 = system: U-251
SNB-19 = system: SNB-19
A549 = system: A549
HCT-116 = system: HCT-116
DU-145 = system: DU-145
NCI-H226 = system: NCI-H226
OVCAR-5 = system: OVCAR-5
MDA-MB-231 = system: MDA-MB-231
SR = system: SR

SMILES: CCN(CC)CCCNc1ccc2nc(C)n3c4ccc(O)cc4c(=O)c1c23
- GI50 (M14): 8.61 µM (inactive)
- GI50 (HOP-18): 12.4 µM (inactive)
- GI50 (SNB-75): 0.881 µM (active)
- GI50 (COLO 205): 5.18 µM (inactive)
- GI50 (XF498): 6.81 µM (inactive)
- GI50 (KM12): 3.61 µM (inactive)
- GI50 (BT-549): 12.1 µM (inactive)
- GI50 (SF-295): 5.16 µM (inactive)
- GI50 (ACHN): 3.01 µM (inactive)
- GI50 (K562): 2.97 µM (inactive)
- GI50 (SK-OV-3): 6.64 µM (inactive)
- GI50 (Malme-3M): 10.7 µM (inactive)
- GI50 (HCT-15): 3.62 µM
- GI50 (TK-10): 7.16 µM (inactive)
- GI50 (SK-MEL-28): 12.7 µM (inactive)
- GI50 (OVCAR-8): 1.95 µM (inactive)
- GI50 (CAKI-1): 4.78 µM (inactive)
- GI50 (HCC 2998): 7.43 µM (inactive)
- GI50 (HT-29): 1.17 µM (inactive)
- GI50 (CCRF-CEM): 1.79 µM (inactive)
- GI50 (NCI-H460): 0.838 µM (active)
- GI50 (EKVX): 11.4 µM (inactive)
- GI50 (SNB-78): 5.35 µM (inactive)
- GI50 (KM-20L2): 1.65 µM (inactive)
- GI50 (HL-60): 1.61 µM (inactive)
- GI50 (MDA-MB-435): 9.89 µM (inactive)
- GI50 (UACC-62): 10 µM (inactive)
- GI50 (LOX IMVI): 1.14 µM (inactive)
- GI50 (IGROV-1): 1.64 µM (inactive)
- GI50 (NCI-H522): 0.485 µM (active)
- GI50 (Hs-578T): 7.08 µM (inactive)
- GI50 (SF-539): 9.38 µM (inactive)
- GI50 (SN12C): 5.15 µM (inactive)
- GI50 (T47D): 15.4 µM (inactive)
- GI50 (SK-MEL-5): 10.3 µM (inactive)
- GI50 (UO-31): 5.89 µM (inactive)
- GI50 (MCF7): 0.863 µM (active)
- GI50 (PC-3): 1.47 µM (inactive)
- GI50 (786-0): 1.81 µM (inactive)
- GI50 (OVCAR-3): 8.09 µM (inactive)
- GI50 (UACC-257): 15.5 µM (inactive)
- GI50 (MDA-N): 7.53 µM (inactive)
- GI50 (NCI-H23): 1.34 µM (inactive)
- GI50 (RXF 631): 3.79 µM (inactive)
- GI50 (NCI/ADR-RES): 12.6 µM (inactive)
- GI50 (DLD-1): 1.2 µM (inactive)
- GI50 (SW-620): 0.957 µM (active)
- GI50 (MOLT-4): 0.301 µM (active)
- GI50 (SK-MEL-2): 6.35 µM (inactive)
- GI50 (DMS-273): 0.619 µM (active)
- GI50 (RPMI-8226): 1.9 µM (inactive)
- GI50 (A498): 11.9 µM (inactive)
- GI50 (HOP-62): 3.21 µM (inactive)
- GI50 (OVCAR-4): 4.65 µM (inactive)
- GI50 (HOP-92): 2.89 µM (inactive)
- GI50 (LXFL 529): 3.22 µM (inactive)
- GI50 (DMS-114): 5.41 µM (inactive)
- GI50 (RXF 393): 3.89 µM (inactive)
- GI50 (M19-MEL): 10.6 µM (inactive)
- GI50 (SF-268): 1.96 µM (inactive)
- GI50 (U-251): 5.36 µM (inactive)
- GI50 (SNB-19): 6.7 µM (inactive)
- GI50 (A549): 2.11 µM (inactive)
- GI50 (HCT-116): 0.713 µM (active)
- GI50 (DU-145): 5.46 µM (inactive)
- GI50 (NCI-H226): 6.46 µM (inactive)
- GI50 (OVCAR-5): 6.22 µM (inactive)

SMILES: O=C1C(Br)=C(c2ccccc2)C(c2ccccc2)=C1c1ccccc1
- GI50 (M14): 2.15 µM (inactive)
- GI50 (HOP-18): 4.9 µM (inactive)
- GI50 (SNB-75): 3.63 µM (inactive)
- GI50 (COLO 205): 1.87 µM (inactive)
- GI50 (XF498): 1.81 µM (inactive)
- GI50 (KM12): 5.94 µM (inactive)
- GI50 (BT-549): 3.6 µM (inactive)
- GI50 (SF-295): 10.9 µM (inactive)
- GI50 (ACHN): 2.55 µM (inactive)
- GI50 (K562): 1.61 µM (inactive)
- GI50 (SK-OV-3): 15.9 µM (inactive)
- GI50 (Malme-3M): 1.75 µM (inactive)
- GI50 (MDA-MB-231): 1.79 µM (inactive)
- GI50 (HCT-15): 1.76 µM
- GI50 (TK-10): 3.42 µM (inactive)
- GI50 (SK-MEL-28): 2.61 µM (inactive)
- GI50 (OVCAR-8): 2.04 µM (inactive)
- GI50 (CAKI-1): 2.44 µM (inactive)
- GI50 (HCC 2998): 6.05 µM (inactive)
- GI50 (HT-29): 2.28 µM (inactive)
- GI50 (CCRF-CEM): 0.269 µM (active)
- GI50 (NCI-H460): 4.83 µM (inactive)
- GI50 (EKVX): 8.75 µM (inactive)
- GI50 (SNB-78): 2.12 µM (inactive)
- GI50 (KM-20L2): 4.78 µM (inactive)
- GI50 (HL-60): 0.67 µM (active)
- GI50 (MDA-MB-435): 3.82 µM (inactive)
- GI50 (UACC-62): 2.38 µM (inactive)
- GI50 (LOX IMVI): 1.33 µM (inactive)
- GI50 (IGROV-1): 4.28 µM (inactive)
- GI50 (NCI-H522): 0.753 µM (active)
- GI50 (Hs-578T): 13.7 µM (inactive)
- GI50 (SF-539): 3.01 µM (inactive)
- GI50 (SN12C): 1.95 µM (inactive)
- GI50 (T47D): 2.37 µM (inactive)
- GI50 (SK-MEL-5): 2.94 µM (inactive)
- GI50 (UO-31): 5.5 µM (inactive)
- GI50 (MCF7): 2.4 µM (inactive)
- GI50 (PC-3): 4.1 µM (inactive)
- GI50 (786-0): 1.95 µM (inactive)
- GI50 (OVCAR-3): 2.61 µM (inactive)
- GI50 (UACC-257): 3.35 µM (inactive)
- GI50 (MDA-N): 2.98 µM (inactive)
- GI50 (NCI-H23): 3.64 µM (inactive)
- GI50 (RXF 631): 6.49 µM (inactive)
- GI50 (DLD-1): 1.82 µM (inactive)
- GI50 (SW-620): 1.77 µM (inactive)
- GI50 (MOLT-4): 0.601 µM (active)
- GI50 (SK-MEL-2): 4.41 µM (inactive)
- GI50 (SR): 0.979 µM (active)
- GI50 (DMS-273): 1.79 µM (inactive)
- GI50 (RPMI-8226): 1.45 µM (inactive)
- GI50 (A498): 16.1 µM (inactive)
- GI50 (HOP-62): 14.2 µM (inactive)
- GI50 (OVCAR-4): 1.99 µM (inactive)
- GI50 (HOP-92): 1.69 µM (inactive)
- GI50 (LXFL 529): 1.5 µM (inactive)
- GI50 (DMS-114): 1.89 µM (inactive)
- GI50 (RXF 393): 1.99 µM (inactive)
- GI50 (M19-MEL): 2.17 µM (inactive)
- GI50 (SF-268): 3.44 µM (inactive)
- GI50 (U-251): 3.36 µM (inactive)
- GI50 (SNB-19): 11.4 µM (inactive)
- GI50 (A549): 13.1 µM (inactive)
- GI50 (HCT-116): 1.9 µM (inactive)
- GI50 (DU-145): 13.2 µM (inactive)
- GI50 (NCI-H226): 8.43 µM (inactive)
- GI50 (OVCAR-5): 12 µM (inactive)

From ChEMBL document CHEMBL1201862, “PubChem BioAssay data set” (2004)
